According to patent US20040121965A1, “Method of treating resistant tumors” (Wyeth Holdings Corporation, priority 2002, published 2004):
Read-outs that look alike come from different tables or passages of the source.

Legend:
KB-8-5 (MDR1+) = assay: Cell survival assay (SRB), KB-8-5 (MDR1+); conditions: for IC50: Homo sapiens, MDR1, read-out: In vitro IC50 (nM) KB85
KB-V1 (MDR1++) = assay: Cell survival assay (SRB), KB-V1 (MDR1++); conditions: for IC50: Homo sapiens
KB-3-1 = assay: Cell survival assay (SRB), KB-3-1; assay type: cell-based, human; conditions: Homo sapiens, KB 3-1, KB-3-1 cells (paclitaxel-sensitive parent); read-out: In vitro IC50 (nM) KB-3-1
Summary of the method: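 SRB protein stain as survival read-out; IC50 = conc. giving 50% growth inhibition. Compound serially diluted, duplicate wells, 3 d exposure; TCA fixation (10% final, 1 h, 4 °C), 0.04% SRB/1% acetic acid 10 min, solubilised in 10 mM Trizma Base, A read.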

[1] = read-out: In vitro IC50 (nM) KBV1

Row | SMILES | Ratio KB85/KB (KB-8-5 (MDR1+)) | IC50 (KB-8-5 (MDR1+)) | IC50 (KB-V1 (MDR1++); read-out: In vitro IC50 KBV1) | IC50 (KB-3-1) | Ratio KBV1/KB (KB-V1 (MDR1++)) | IC50 (KB-V1 (MDR1++); [1])
1 | CCCCCCCCOC(=O)/C(C)=C/[C@H](C(C)C)N(C)C(=O)[C@@H](NC(=O)[C@@H](NC)C(C)(C)c1ccccc1)C(C)(C)C [Example 116, N,β,β-trimethyl-L-phenylalanyl-N^1-[(1S,2E)-1-isopropyl-3-methyl-4-(octyloxy)-4-oxobut-2-enyl]-N^1,3-dimethyl-L-valinamide] | 10.9 | 1630 nM | > 3000 nM | 150 nM |  | 
2 | CN[C@H](C(=O)N[C@H](C(=O)N[C@H](/C=C(\C)C(=O)O)CC(C)C)C(C)(C)C)C(C)(C)c1ccccc1.O=C(O)C(F)(F)F [Example 93, N,β,β-trimethyl-L-phenylalanyl-N^1-[(1S,2E)-3-carboxy-1-isobutylbut-2-enyl]-3-methyl-L-valinamide Trifluoroacetic Acid] | 4.0 | 339 nM |  | 85.2 nM | 35.2 | ≥ 3000 nM
3 | CN[C@@H](C(=O)N[C@H](C(=O)N(C)[C@H](/C=C(\C)C(=O)O)C(C)C)C(C)(C)C)C(C)(C)c1cccc(F)c1 [Example 61, 3-Fluoro-N,β,β-trimethyl-D-phenylalanyl-N^1-[(1S,2E)-3-carboxy-1-isopropyl-2-butenyl]-N^1,3-dimethyl-L-valinamide] | 1.5 | 18.6 nM |  | 12.6 nM | 79.4 | 1000 nM
4 | CN[C@H](C(=O)N[C@H](C(=O)N(C)[C@H](/C=C(\C)C(=O)O)C(C)C)C(C)(C)c1ccc(C(=O)c2ccccc2)cc1)C(C)(C)c1ccccc1 [Example 90, N,β,β-trimethyl-L-phenylalanyl-4-benzoyl-N-[(1S,2E)-3-carboxy-1-isopropyl-2-butenyl]-N,β,β-trimethyl-L-phenylalaninamide] | 4.3 | 96.9 nM |  | 22.4 nM | 133.9 | ≥ 3000 nM
5 | CCOC(=O)/C(C)=C/[C@H](C(C)C)N(C)C(=O)[C@@H](NC(=O)[C@@H](NC)C(C)(C)c1ccc(OC)cc1OC)C(C)(C)C [Example 58, 2-Methoxy-N,O,β,β,tetramethyl-L-tyrosyl-N^1-[(1S,2E)-4-ethoxy-1-isopropyl-3-methyl-4-oxo-2-butenyl]-N^1,3-dimethyl-L-valinamide] | 11.7 | 1700 nM |  | 144 nM | 20.8 | ≥ 3000 nM
6 | CN[C@H](C(=O)N[C@H](C(=O)N(C)[C@H](/C=C(\C)C(=O)O)C(C)C)C(C)(C)C)C1(c2ccccc2)CCCC1 [Example 71, (2E,4S)-2,5-dimethyl-4-(methyl{3-methyl-N-[(2S)-2-(methylamino)-2-(1-phenylcyclopentyl)ethanoyl]-L-valyl}amino)-2-hexenoic acid] | 1.3 | 186 nM |  | 141 nM | 21.2 | ≥ 3000 nM
7 | CN[C@H](C(=O)N[C@H](C(=O)N(C)[C@H](/C=C(\C)C(=O)O)C(C)C)C(C)(C)C)C(C)(C)c1ccc(/C=C/c2ccccc2)cc1 [Example 146, N,β,β-trimethyl-4-[(E)-2-phenylvinyl]-L-phenylalanyl-N^1-[(1S,2E)-3-carboxy-1-isopropylbut-2-enyl]-N^1,3-dimethyl-L-valinamide] | 2.4 | 3.1 nM |  | 1.3 nM | 53.8 | 70 nM
8 | CN[C@@H](C(=O)N[C@H](C(=O)N(C)[C@H](/C=C(\C)C(=O)O)C(C)C)C(C)(C)C)C(C)(C)c1ccc(/C=C/c2ccccc2)cc1 [Example 147, N,β,β-trimethyl4-[(E)-2-phenylvinyl]-D-phenylalanyl-N^1-[(1S,2E)-3-carboxy-1-isopropylbut-2-enyl]-N^1,3-dimethyl-L-valinamide] | 1.7 | 20 nM |  | 11.6 nM | 53.4 | 620 nM
9 | CN[C@H](C(=O)N[C@H](C(=O)N(C)[C@H](/C=C(\C)C(=O)O)C(C)C)C(C)(C)C)C(C)(C)Cc1ccccc1 [Example 48, N,3-Dimethyl-4-phenyl-L-valyl-N^1-[(1S,2E)-3-carboxy-1-isopropyl-2-butenyl]-N^1,3-dimethyl-L-valinamide] | 2.2 | 6 nM |  | 2.7 nM | 81.0 | 219 nM
10 | CN[C@H](C(=O)N[C@H](C(=O)N(C)[C@H](/C=C(\C)C(=O)O)C(C)C)C(C)(C)C)C(C)(C)c1cccc(O)c1 [Example 47, 3-Hydroxy-N,β,β-trimethylphenylalanyl-N^1-[(1S,2E)-3-carboxy-1-isopropyl-2-butenyl]-N^1,3-dimethyl-L-valinamide] | 5.4 | 37.5 nM |  | 7 nM | 329.7 | 2310 nM
11 | CN[C@H](C(=O)N[C@H](C(=O)N(C)[C@H](/C=C(\C)C(=O)O)C(C)C)C(C)(C)C)C(C)(C)c1ccc(Br)cc1 [Example 43, 4-bromo-N,β,β-trimethylphenylalanyl-N^1-[(1S,2E)-3-carboxy-1-isopropyl-2-butenyl]-N^1,3-dimethyl-L-valinamide] | 2.9 | 4.4 nM |  | 1.5 nM | 69.8 | 105 nM
12 | CN[C@H](C(=O)N[C@H](C(=O)N(C)[C@H](/C=C(\C)C(=O)O)C(C)C)C(C)(C)C)C(C)(C)c1cc(F)cc(F)c1 [Example 64, 3,5-Difluoro-N,β,β-trimethyl-L-phenylalanyl-N^1-[(1S,2E)-3-carboxy-1-isopropylbut-2-enyl]-N^1,3-dimethyl-L-valinamide] | 2.6 | 16.2 nM |  | 6.2 nM | 73.7 | 457 nM
13 | CN[C@H](C(=O)N[C@H](C(=O)N(C)[C@H](/C=C(\C)C(=O)O)C(C)C)C(C)(C)C)C(C)(C)c1ccc(OC)cc1OC [Example 59, 2-Methoxy-N,O,β,β-tetramethyl-L-tyrosyl-N^1-[(1S,2E)-3-carboxy-1-isopropyl-2-butenyl]-N^1,3-dimethyl-L-valinamide] | 5.5 | 13.2 nM |  | 2.4 nM | 446.7 | 1070 nM
14 | CN[C@H](C(=O)N[C@@H](C(=O)N(C)[C@H](/C=C(\C)C(=O)O)C(C)C)C(C)C)C(C)(C)c1ccccc1 [Example 131, N,β,β-trimethyl-L-phenylalanyl-N^1-[(1S,2E)-3-carboxy-1-isopropylbut-2-enyl]-N^1-methyl-D-valinamide] | 2.0 | 12 nM |  | 6 nM | 512.8 | ≥ 3000 nM
15 | CN[C@@H](C(=O)N[C@H](C(=O)N(C)[C@H](/C=C(\C)C(=O)O)C(C)C)C(C)(C)C)C(C)(C)c1ccc(C)c(C)c1 [Example 15, N,β,β,3,4-Pentamethyl-D-phenylalanyl-N^1-[(1S,2E)-3-carboxy-1-isopropyl-2-butenyl]-N^1,3-dimethyl-L-valinamide] | 1.6 | 21.4 nM |  | 13.8 nM | 87.1 | 1200 nM
